Among the test systems are IGROV1 ovarian; K-562 leukemia; M14 melanoma; MCF7 breast; NCI-H460 lung; PC-3 prostate; SF-295 CNS; SW-620 colon; U251 CNS; UO-31 renal.
What all share (experiment): NCI tumour cell line growth inhibition, 48 h

Structures are written as SMILES.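 These data come from cells grown in 96-well plates and exposed to compound for 48 hours at five concentrations. GI50 = concentration required for 50% inhibition of growth. Definition used: TGI = concentration required for complete inhibition of growth.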

Data on twelve compounds can be found in PubChem BioAssay (NCI).

With `Cc1[nH]n(-c2nc(-c3ccccc3)cc(=O)[nH]2)c(=O)c1CCO`, the TGI with IGROV1 ovarian, in the experiment with K-562 leukemia, with M14 melanoma, in the experiment with MCF7 breast, with NCI-H460 lung and in the experiment on PC-3 prostate was over 100 µM throughout. Also, the TGI in the experiment with SF-295 CNS, in the experiment on SW-620 colon, with U251 CNS and in the experiment on UO-31 renal was over 100 µM each time.
Regarding `CC(C)(C)OC(=O)NC(CSCc1ccc(C(=O)c2ccccc2)cc1)C(=O)N1CCN(CCCCN2c3ccccc3Sc3cc(N=[N+]=[N-])ccc32)CC1` (configuration not stated), the TGI in the experiment with IGROV1 ovarian, in the experiment on K-562 leukemia, with M14 melanoma, in the experiment on MCF7 breast, in the experiment with NCI-H460 lung and in the experiment on PC-3 prostate was over 100 µM throughout. In addition, the TGI in the experiment on SF-295 CNS, with SW-620 colon, in the experiment on U251 CNS and with UO-31 renal was over 100 µM in each case.
On to `ClCCCN1CCN(CCCl)CC1`, for which the TGI with IGROV1 ovarian was 652 µM; in the experiment on K-562 leukemia, over 965 µM; in the experiment with M14 melanoma it was 872 µM; in the experiment with MCF7 breast it was 736 µM; in the experiment on NCI-H460 lung, 356 µM; in the experiment on PC-3 prostate it was over 1000 µM. Moreover, the TGI was 456 µM in the experiment with SF-295 CNS, over 873 µM in the experiment with SW-620 colon, 543 µM with U251 CNS and 493 µM in the experiment on UO-31 renal. The GI50 is 82.9 µM with K-562 leukemia; 77.2 µM in the experiment with M14 melanoma; 7.97 µM in the experiment on NCI-H460 lung; 40.8 µM in the experiment on SF-295 CNS; 83.7 µM with SW-620 colon; 79.6 µM in the experiment with U251 CNS. The GI50 in the experiment with UO-31 renal is 56.4 µM.
As to `Nc1cc(C2CCCc3c2[nH]c2ccccc32)ccc1O` (configuration not stated), the TGI with IGROV1 ovarian, in the experiment with K-562 leukemia, in the experiment with M14 melanoma, with MCF7 breast, in the experiment with NCI-H460 lung and in the experiment with PC-3 prostate was over 100 µM in each case. Moreover, the TGI with SF-295 CNS, in the experiment with SW-620 colon, in the experiment with U251 CNS and with UO-31 renal was over 100 µM each time.
With `COc1cc(/C=C/C(=O)CC(=O)/C=C/c2cc(C)c(O)c(OC)c2)cc(C)c1O`, the TGI in the experiment on IGROV1 ovarian, in the experiment on K-562 leukemia, in the experiment on M14 melanoma, in the experiment on MCF7 breast, in the experiment with NCI-H460 lung and in the experiment on PC-3 prostate was over 100 µM throughout. The TGI with SF-295 CNS, with SW-620 colon, in the experiment with U251 CNS and with UO-31 renal was over 100 µM in each case.
Regarding `O=[N+]([O-])c1ccc2c(c1)nc1n2C(c2c(F)cccc2F)SC1` (configuration not stated), the TGI with IGROV1 ovarian, in the experiment on K-562 leukemia, in the experiment with M14 melanoma, in the experiment on MCF7 breast, with NCI-H460 lung and in the experiment on PC-3 prostate was over 100 µM each time. Further, the TGI in the experiment on SF-295 CNS, in the experiment on SW-620 colon, in the experiment on U251 CNS and in the experiment on UO-31 renal was over 100 µM each time.
With `COc1cc(/C=C2\C(=O)N(c3cccc(NC(C)=O)c3)C(c3ccccc3)S2(=O)=O)cc(OC)c1OC` (configuration not stated), the TGI with IGROV1 ovarian, with K-562 leukemia, in the experiment on M14 melanoma, in the experiment on MCF7 breast, in the experiment on NCI-H460 lung and with PC-3 prostate was over 100 µM in each case. The TGI in the experiment with SF-295 CNS, in the experiment on SW-620 colon, with U251 CNS and with UO-31 renal was over 100 µM in each case.
As to `CN1C/C(=C\c2cccs2)C2=NN(c3ccccc3)C(c3cccs3)C2C1` (configuration not stated), the TGI is over 25.5 µM in the experiment with IGROV1 ovarian; over 100 µM with K-562 leukemia; over 68.3 µM with M14 melanoma; over 100 µM in the experiment on MCF7 breast; over 100 µM in the experiment with NCI-H460 lung; over 100 µM in the experiment with PC-3 prostate. Also, the TGI with SF-295 CNS was over 80.3 µM; in the experiment with SW-620 colon, over 100 µM; with U251 CNS it was over 100 µM; with UO-31 renal it was over 100 µM.
Take `Nc1cc(CO)cc(Nc2c3ccccc3nc3ccccc23)c1`: the TGI in the experiment on IGROV1 ovarian was 31.3 µM; with K-562 leukemia, over 100 µM; in the experiment on M14 melanoma, 31.3 µM; in the experiment on MCF7 breast it was 29.5 µM; with NCI-H460 lung, over 100 µM; with PC-3 prostate, 36 µM. Besides, the TGI in the experiment on SF-295 CNS is 25.3 µM; in the experiment on SW-620 colon, 26 µM; with U251 CNS it was 28.3 µM; in the experiment on UO-31 renal, 32.3 µM.
For the compound `COc1ccc(-c2c(C#N)c(N)[nH]c(=S)c2C#N)cc1`, the TGI in the experiment with IGROV1 ovarian, in the experiment with K-562 leukemia, in the experiment on M14 melanoma, with MCF7 breast, with NCI-H460 lung and in the experiment with PC-3 prostate was over 100 µM in each case. In addition, the TGI in the experiment with SF-295 CNS, in the experiment on SW-620 colon, in the experiment with U251 CNS and with UO-31 renal was over 100 µM in each case.
Turning to `CS(=O)(=O)OCCN(CCOS(C)(=O)=O)c1ccc(C=Nc2ccc(-c3csc(Cc4ccccc4)n3)cc2)c(Cl)c1`, the TGI is over 74.2 µM in the experiment with IGROV1 ovarian; 76.9 µM in the experiment with K-562 leukemia; over 62.7 µM in the experiment with M14 melanoma; 50.1 µM with MCF7 breast; 43.4 µM with NCI-H460 lung; over 79.8 µM in the experiment with PC-3 prostate. Moreover, the TGI with SF-295 CNS was over 86.3 µM; with SW-620 colon it was over 100 µM; in the experiment on U251 CNS, over 83.3 µM; in the experiment on UO-31 renal it was over 85.8 µM.
Take `NCCCn1c(Cl)nc2ccccc21`: the TGI with IGROV1 ovarian, in the experiment with K-562 leukemia, in the experiment on M14 melanoma, in the experiment on MCF7 breast, in the experiment with NCI-H460 lung and in the experiment on PC-3 prostate was over 100 µM each time. Also, the TGI in the experiment with SF-295 CNS, in the experiment with SW-620 colon, in the experiment with U251 CNS and in the experiment on UO-31 renal was over 100 µM throughout.
